Laboratory results taken from patent US10765114B2, “4-amino-6-(pyridyl and 2-substitutedphenyl)-picolinates and 6-amino-2-(pyridyl and 2-substitutedphenyl)-pyrimidine-4-carboxylates and their use as herbicides” (Dow AgroSciences LLC, priority 2013, dated 2020).

Test system: Key Broadleaf Weed and Crop Species
Assay: Post-Emergent Test II (Table 5)
Format: in vivo
Conditions: Abutilon theophrasti, post-emergence, 336 h, ABUTH: velvetleaf (Abutilon theophrasti), application rate 70 (kg ai/ha; footnote: g ai/ha), read-out: Visual Growth Reduction (%) 14 Days After Application ABUTH
Procedure, shortened: (§1)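 Visual injury ratings (0 = no injury, 100 = complete kill) taken 14 days after treatment, relative to untreated controls. Compounds, in an acetone/DMSO aqueous carrier with crop oil and surfactant, were applied by track sprayer at 187 L/ha, in a twofold dilution series from the top rate, to plants at the first to second true-leaf stage.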

Compound | pest or weed control at 70 g/ha [%]
Nc1c(Cl)c(C(=O)O)nc(-c2ccc(C(F)(F)F)nc2)c1Cl [Compound 33] | 0 to 29

Same assay, conditions: Abutilon theophrasti, post-emergence, 336 h, ABUTH: velvetleaf (Abutilon theophrasti), application rate 140 (kg ai/ha; footnote: g ai/ha), read-out: Visual Growth Reduction (%) 14 Days After Application ABUTH

Compound | pest or weed control at 140 g/ha [%]
Nc1c(Cl)c(C(=O)O)nc(-c2ccc(C(F)(F)F)nc2)c1Cl [Compound 33] | 0 to 29

Same assay, conditions: Amaranthus retroflexus, post-emergence, 336 h, AMARE: redroot pigweed (Amaranthus retroflexus), application rate 70 (kg ai/ha; footnote: g ai/ha), read-out: Visual Growth Reduction (%) 14 Days After Application AMARE

Compound | pest or weed control at 70 g/ha [%]
Nc1c(Cl)c(C(=O)O)nc(-c2ccc(C(F)(F)F)nc2)c1Cl [Compound 33] | 60 to 74

Same assay, conditions: Amaranthus retroflexus, post-emergence, 336 h, AMARE: redroot pigweed (Amaranthus retroflexus), application rate 140 (kg ai/ha; footnote: g ai/ha), read-out: Visual Growth Reduction (%) 14 Days After Application AMARE

Compound | pest or weed control at 140 g/ha [%]
Nc1c(Cl)c(C(=O)O)nc(-c2ccc(C(F)(F)F)nc2)c1Cl [Compound 33] | 95 to 100

Same assay, conditions: Brassica napus, post-emergence, 336 h, BRSSS: oilseed rape, canola (Brassica napus), application rate 70 (kg ai/ha; footnote: g ai/ha), read-out: Visual Growth Reduction (%) 14 Days After Application BRSSS

Compound | pest or weed control at 70 g/ha [%]
Nc1c(Cl)c(C(=O)O)nc(-c2ccc(C(F)(F)F)nc2)c1Cl [Compound 33] | 0 to 29

Same assay, conditions: Brassica napus, post-emergence, 336 h, BRSSS: oilseed rape, canola (Brassica napus), application rate 140 (kg ai/ha; footnote: g ai/ha), read-out: Visual Growth Reduction (%) 14 Days After Application BRSSS

Compound | pest or weed control at 140 g/ha [%]
Nc1c(Cl)c(C(=O)O)nc(-c2ccc(C(F)(F)F)nc2)c1Cl [Compound 33] | 30 to 44

Same assay, conditions: Chenopodium album, post-emergence, 336 h, CHEAL: lambsquarters (Chenopodium album), application rate 70 (kg ai/ha; footnote: g ai/ha), read-out: Visual Growth Reduction (%) 14 Days After Application CHEAL

Compound | pest or weed control at 70 g/ha [%]
Nc1c(Cl)c(C(=O)O)nc(-c2ccc(C(F)(F)F)nc2)c1Cl [Compound 33] | 85 to 94

Same assay, conditions: Chenopodium album, post-emergence, 336 h, CHEAL: lambsquarters (Chenopodium album), application rate 140 (kg ai/ha; footnote: g ai/ha), read-out: Visual Growth Reduction (%) 14 Days After Application CHEAL

Compound | pest or weed control at 140 g/ha [%]
Nc1c(Cl)c(C(=O)O)nc(-c2ccc(C(F)(F)F)nc2)c1Cl [Compound 33] | 85 to 94

Same assay, conditions: Euphorbia heterophylla, post-emergence, 336 h, EPHHL: wild poinsettia (Euphorbia heterophylla), application rate 70 (kg ai/ha; footnote: g ai/ha), read-out: Visual Growth Reduction (%) 14 Days After Application EPHHL

Compound | pest or weed control at 70 g/ha [%]
Nc1c(Cl)c(C(=O)O)nc(-c2ccc(C(F)(F)F)nc2)c1Cl [Compound 33] | 75 to 84

Same assay, conditions: Euphorbia heterophylla, post-emergence, 336 h, EPHHL: wild poinsettia (Euphorbia heterophylla), application rate 140 (kg ai/ha; footnote: g ai/ha), read-out: Visual Growth Reduction (%) 14 Days After Application EPHHL

Compound | pest or weed control at 140 g/ha [%]
Nc1c(Cl)c(C(=O)O)nc(-c2ccc(C(F)(F)F)nc2)c1Cl [Compound 33] | 75 to 84

Same assay, conditions: Helianthus annuus, post-emergence, 336 h, HELAN: sunflower (Helianthus annuus), application rate 70 (kg ai/ha; footnote: g ai/ha), read-out: Visual Growth Reduction (%) 14 Days After Application HELAN

Compound | pest or weed control at 70 g/ha [%]
Nc1c(Cl)c(C(=O)O)nc(-c2ccc(C(F)(F)F)nc2)c1Cl [Compound 33] | 85 to 94

Same assay, conditions: Helianthus annuus, post-emergence, 336 h, HELAN: sunflower (Helianthus annuus), application rate 140 (kg ai/ha; footnote: g ai/ha), read-out: Visual Growth Reduction (%) 14 Days After Application HELAN

Compound | pest or weed control at 140 g/ha [%]
Nc1c(Cl)c(C(=O)O)nc(-c2ccc(C(F)(F)F)nc2)c1Cl [Compound 33] | 95 to 100

Same assay, conditions: Viola tricolor, post-emergence, 336 h, VIOTR: wild pansy (Viola tricolor), application rate 70 (kg ai/ha; footnote: g ai/ha), read-out: Visual Growth Reduction (%) 14 Days After Application VIOTR

Compound | pest or weed control at 70 g/ha [%]
Nc1c(Cl)c(C(=O)O)nc(-c2ccc(C(F)(F)F)nc2)c1Cl [Compound 33] | 0 to 29

Same assay, conditions: Viola tricolor, post-emergence, 336 h, VIOTR: wild pansy (Viola tricolor), application rate 140 (kg ai/ha; footnote: g ai/ha), read-out: Visual Growth Reduction (%) 14 Days After Application VIOTR

Compound | pest or weed control at 140 g/ha [%]
Nc1c(Cl)c(C(=O)O)nc(-c2ccc(C(F)(F)F)nc2)c1Cl [Compound 33] | 0 to 29

Test system: Key Grass and Sedge Weeds as well as Grass Crops
Assay: Post-Emergent Test II (Table 6)
Format: in vivo
Conditions: post-emergence, 336 h, CYPSS, 70 g ai/ha, 14 days after application, read-out: Visual Growth Reduction (%) 14 Days After Application CYPSS
Procedure, shortened: as §1

Compound | pest or weed control at 70 g/ha [%]
Nc1c(Cl)c(C(=O)O)nc(-c2ccc(C(F)(F)F)nc2)c1Cl [Compound 33] | 95 to 100

Same assay, conditions: post-emergence, 336 h, CYPSS, 140 g ai/ha, 14 days after application, read-out: Visual Growth Reduction (%) 14 Days After Application CYPSS

Compound | pest or weed control at 140 g/ha [%]
Nc1c(Cl)c(C(=O)O)nc(-c2ccc(C(F)(F)F)nc2)c1Cl [Compound 33] | 95 to 100

Same assay, conditions: post-emergence, 336 h, DIGSA: crabgrass (Digitaria sanguinalis), 70 g ai/ha, 14 days after application, read-out: Visual Growth Reduction (%) 14 Days After Application DIGSA

Compound | pest or weed control at 70 g/ha [%]
Nc1c(Cl)c(C(=O)O)nc(-c2ccc(C(F)(F)F)nc2)c1Cl [Compound 33] | 45 to 59

Same assay, conditions: post-emergence, 336 h, DIGSA: crabgrass (Digitaria sanguinalis), 140 g ai/ha, 14 days after application, read-out: Visual Growth Reduction (%) 14 Days After Application DIGSA

Compound | pest or weed control at 140 g/ha [%]
Nc1c(Cl)c(C(=O)O)nc(-c2ccc(C(F)(F)F)nc2)c1Cl [Compound 33] | 60 to 74

Same assay, conditions: post-emergence, 336 h, ECHSS, 70 g ai/ha, 14 days after application, read-out: Visual Growth Reduction (%) 14 Days After Application ECHSS

Compound | pest or weed control at 70 g/ha [%]
Nc1c(Cl)c(C(=O)O)nc(-c2ccc(C(F)(F)F)nc2)c1Cl [Compound 33] | 60 to 74

Same assay, conditions: post-emergence, 336 h, ECHSS, 140 g ai/ha, 14 days after application, read-out: Visual Growth Reduction (%) 14 Days After Application ECHSS

Compound | pest or weed control at 140 g/ha [%]
Nc1c(Cl)c(C(=O)O)nc(-c2ccc(C(F)(F)F)nc2)c1Cl [Compound 33] | 60 to 74

Same assay, conditions: post-emergence, 336 h, ORYSS (crop), 70 g ai/ha, 14 days after application, read-out: Visual Growth Reduction (%) 14 Days After Application ORYSS

Compound | pest or weed control at 70 g/ha [%]
Nc1c(Cl)c(C(=O)O)nc(-c2ccc(C(F)(F)F)nc2)c1Cl [Compound 33] | 0 to 29

Same assay, conditions: post-emergence, 336 h, ORYSS (crop), 140 g ai/ha, 14 days after application, read-out: Visual Growth Reduction (%) 14 Days After Application ORYSS

Compound | pest or weed control at 140 g/ha [%]
Nc1c(Cl)c(C(=O)O)nc(-c2ccc(C(F)(F)F)nc2)c1Cl [Compound 33] | 0 to 29

Same assay, conditions: post-emergence, 336 h, SETFA: giant foxtail (Setaria faberi), 70 g ai/ha, 14 days after application, read-out: Visual Growth Reduction (%) 14 Days After Application SETFA

Compound | pest or weed control at 70 g/ha [%]
Nc1c(Cl)c(C(=O)O)nc(-c2ccc(C(F)(F)F)nc2)c1Cl [Compound 33] | 75 to 84

Same assay, conditions: post-emergence, 336 h, SETFA: giant foxtail (Setaria faberi), 140 g ai/ha, 14 days after application, read-out: Visual Growth Reduction (%) 14 Days After Application SETFA

Compound | pest or weed control at 140 g/ha [%]
Nc1c(Cl)c(C(=O)O)nc(-c2ccc(C(F)(F)F)nc2)c1Cl [Compound 33] | 75 to 84

Same assay, conditions: post-emergence, 336 h, SORVU: grain sorghum (Sorghum vulgare), 70 g ai/ha, 14 days after application, read-out: Visual Growth Reduction (%) 14 Days After Application SORVU

Compound | pest or weed control at 70 g/ha [%]
Nc1c(Cl)c(C(=O)O)nc(-c2ccc(C(F)(F)F)nc2)c1Cl [Compound 33] | 75 to 84

Same assay, conditions: post-emergence, 336 h, SORVU: grain sorghum (Sorghum vulgare), 140 g ai/ha, 14 days after application, read-out: Visual Growth Reduction (%) 14 Days After Application SORVU

Compound | pest or weed control at 140 g/ha [%]
Nc1c(Cl)c(C(=O)O)nc(-c2ccc(C(F)(F)F)nc2)c1Cl [Compound 33] | 75 to 84

Same assay, conditions: post-emergence, 336 h, TRZSS (crop), 70 g ai/ha, 14 days after application, read-out: Visual Growth Reduction (%) 14 Days After Application TRZSS

Compound | pest or weed control at 70 g/ha [%]
Nc1c(Cl)c(C(=O)O)nc(-c2ccc(C(F)(F)F)nc2)c1Cl [Compound 33] | 30 to 44

Same assay, conditions: post-emergence, 336 h, TRZSS (crop), 140 g ai/ha, 14 days after application, read-out: Visual Growth Reduction (%) 14 Days After Application TRZSS

Compound | pest or weed control at 140 g/ha [%]
Nc1c(Cl)c(C(=O)O)nc(-c2ccc(C(F)(F)F)nc2)c1Cl [Compound 33] | 45 to 59

Same assay, conditions: post-emergence, 336 h, ZEAMX: maize, corn (Zea mays), 70 g ai/ha, 14 days after application, read-out: Visual Growth Reduction (%) 14 Days After Application ZEAMX

Compound | pest or weed control at 70 g/ha [%]
Nc1c(Cl)c(C(=O)O)nc(-c2ccc(C(F)(F)F)nc2)c1Cl [Compound 33] | 60 to 74

Same assay, conditions: post-emergence, 336 h, ZEAMX: maize, corn (Zea mays), 140 g ai/ha, 14 days after application, read-out: Visual Growth Reduction (%) 14 Days After Application ZEAMX

Compound | pest or weed control at 140 g/ha [%]
Nc1c(Cl)c(C(=O)O)nc(-c2ccc(C(F)(F)F)nc2)c1Cl [Compound 33] | 60 to 74

Test system: not given
Assay: not given
Conditions: not given

melting point [°C] | Compound
155 to 158 | Nc1c(Cl)c(C(=O)O)nc(-c2ccc(C(F)(F)F)nc2)c1Cl [Compound 33]
